From patent US10010535B2, “Desferrithiocin analogs and uses thereof” (University of Florida Research Foundation, Incorporated, priority 2013, dated 2018)
Like-named read-outs stand apart in the source and are kept apart here.

How the values were obtained:
[1] = system: urinary Kim-1 excretion
Experimental: The compounds were administered to the rats po as their monosodium salts, prepared as described above, twice daily at a dose of 237 μmol/kg/dose (474 μmol/kg/d) for up to 7 d. The studies were performed on rats with normal iron stores. The rats were fasted overnight and were given the first dose of the compound first thing in the morning. The rats were fed ˜3 h post-dose and had access to food for ˜5 h before being fasted overnight.
The rats were housed in individual metabolic cages. […] A baseline (day 0) urine sample was collected and assessed for its Kim-1 content; each animal served as its own control. The urine was collected chilled as previously described (Bergeron et al., “Desferrithiocin Analog Iron Chelators: Iron Clearing Efficiency, Tissue Distribution, and Renal Toxicity.” Biometals, 2011, 24, 239-258).
The chilled urine was collected, vortexed, and warmed to room temperature; any sediment in the samples was allowed to settle. Kim-1 content was assessed using a Rat Kim-1 Rapid Test Kit according to the manufacturer's instructions. The result was read using a ReaScan Test Reader. […] Data are presented as the mean±the standard error of the mean; p-values were generated via a one-tailed Student's t-test in which the inequality of variances was assumed; and a p-value of <0.05 was considered significant.
Assessment of chelator-induced impaired renal function has traditionally relied on the detection of a rise in blood urea nitrogen (BUN) and/or serum creatinine (SCr). However, because of the functional reserve of the kidney, these parameters are often unreliable indicators of acute kidney injury; the ultimate answer requires histopathology. […] BioAssay Works has recently developed RenaStick, a direct lateral flow immunochromato-graphic assay, which allows for the rapid detection (less than 30 minutes) and quantitation of urinary Kim-1 (rat) or KIM-1 (human) excretion (Vaidya et al., “A Rapid Urine Test for Early Detection of Kidney Injury.” Kidney. Int. 2009, 76, 108-114). […] The studies were performed on rats with normal iron stores; each animal served as their own control.

[2] = Compound-plasma binding, primate plasma; assay type: in vitro ADME; details: 37° C., 4 h, 3,000 MWCO filter
Description: (§1) Each sample was then passed through a Millipore Amicon Ultra regenerated cellulose filter (3,000 MWCO).

[3] = Compound-plasma binding, rodent plasma; assay type: in vitro ADME; details: 37° C., 4 h, 3,000 MWCO filter
Description: as §1

[4] = Octanol-water partition, shake flask (log Papp); assay type: physicochemical; details: pH 7.4, Tris buffer
Experimental: The partition values between octanol and water (at pH 7.4, Tris buffer) were determined using a “shake flask” direct method of measuring log Papp values (Sangster et al., Octanol-Water Partition Coefficients: Fundamentals and Physical Chemistry; John Wiley and Sons: West Sussex, England, 1997; Vol. 2). The fraction of compound in the octanol is then expressed as log Papp. […] This is likely due to the presence of the aromatic nitrogen, a moderately good hydrogen bond accepter, on the DFT analogs.

[5] = Job's plot stoichiometry of Fe(III) complexes; assay type: binding; details: [DFT analog]+[Fe(III)]=1.0 mM, Tris-HCl pH 7.4; theoretical 0.667 for 2:1
Experimental: Solutions containing DFT analog/Fe(III) at different ratios were prepared such that [DFT analog]+[Fe(III)]=1.0 mM in Tris-HCl buffer at pH 7.4. The theoretical mole fraction maximum for a 2:1 DFT analog:Fe complex is 0.667 (indicated by an arrow).
In each instance, the DFT analogs formed 2:1 complexes with Fe(III). […] A 100 mM Tris HCl buffer was used to maintain the pH at 7.4. Solutions containing different DFT analog/Fe(III) ratios were prepared by mixing appropriate volumes of 1.0 mM DFT analog solution and 1.0 mM Fe(III)-nitriloacetate (NTA) in Tris-HCl buffer. The 1.0 mM Fe(III)-NTA solution was prepared immediately prior to use by dilution of a 41.6 mM Fe(III)-NTA stock solution with the Tris HCl buffer, whereas the DFT analog stock solution was prepared by dissolving the DFT analog as its monosodium salt in Tris HCl buffer at pH 7.4. The Fe(III)-NTA stock solution was prepared by mixing equal volumes of […] of FeCl3 and 180 mM trisodium NTA. The iron content of the Fe(III)-NTA solution was verified by atomic absorption spectrophotometry (AAS).

[6] = administered twice daily; cited from earlier work
[7] = system: urinary Kim-1 excretion; details: cited from earlier work; for urinary Kim-1: 237 μmol/kg twice daily
[8] = po twice daily 237 μmol/kg/dose × 7 d
[9] = day 8, after 237 μmol/kg twice daily × 7 d

Row | Structure (SMILES) | survival of dosing period ([1]; po twice daily 237 μmol/kg/dose (474 μmol/kg/d), up to 7 d, rats with normal iron stores) | BUN and SCr [1, 8] | urinary Kim-1 excretion versus baseline (day 0) [1, 8] | renal toxicity (Kim-1, BUN, SCr), summary ([1]; rat, in vivo) | binding of the compound to plasma [2] | binding of the compound to plasma [3] | LogPapp [4] | observed mole fraction maximum in Job's plot [5] | nephrotoxicity in patients [6] | urinary Kim-1 ([7]; after three days) | BUN [7, 9] | SCr [7, 9] | urinary Kim-1 ([7]; end of the 7 d dosing period) | renal toxicity (Kim-1, BUN, SCr), summary ([7]; rats)
1 | COCCOCCOc1ccnc(C2=N[C@@](C)(C(=O)O)CS2)c1O [I-3, (S)-4,5-Dihydro-2-[3-hydroxy-4-(3,6-dioxaheptyloxy)-2-pyridinyl]-4-methyl-4-thiazolecarboxylic Acid] | All of the animals survived the compound dosing regimen | well within the normal range | remained within error of that of the baseline (day 0) levels | little to no impact on renal function | little, if any, binding | little, if any, binding | −1.38 | 0.677 | – | – | – | – | – | –
2 | C[C@]1(C(=O)O)CSC(c2ccc(O)cc2O)=N1 [compound 3] | – | – | – | – | – | – | −1.05 | – | induced proximal tubule nephrotoxicity | 69±47 ng/kg/24 h | 32 ± 13 mg/dL | 1.3 ± 1.0 mg/dL | 189±187 ng/kg/24 h | some nephrotoxicity
